This is an account of results in patent US20050026836A1, “Composition for the treatment of damaged tissue” (priority 1999, published 2005).

For data set [1] the following is noted: in vivo; cited from earlier work.
The target of data set [2] is T1, Plasmin (Homo sapiens, UniProt P00747).
T1 construct: Human plasmin, 2 mg/vial (Quadratech, 810665) was reconstituted to 1 mg/ml in buffer; purchased Quadratech 810665
The data set can be described thus: Proteolytic digestion of growth factors by purified plasmin. Format: biochemical. The arrangement: key: significant (represented as ‘+’); a score from significant (represented as ‘+’) to major (represented as ‘+++’); major (represented as ‘+++’); Reduction of parent growth factor not accompanied by the appearance of degradation products is represented by (+). Particulars: 37° C., Western blot. (In general: A western blot detects proteins with antibodies after separation by electrophoresis.)
Description: (§10) The extent of proteolysis of the growth factors was assayed by incubating TGF-β2, VEGF, PDGF-BB and KGF-2 with the proteases uPA, plasmin, MMP-3 and MMP-13 in assay buffer (either uPA/plasmin buffer, 50 mM tris-HCl, pH 7.4 or MMP assay buffer, 100 mM Tris, 10 mM NaCl, 10 mM CaCl2, 0.05% (w/v) Brij 35, pH 7.5). […] The growth factors were added to the incubation mixture at a final concentration of 7.9 mg/ml, unless otherwise stated.
(§11) The effects of uPA were determined by incubation at a typical final concentration of 25 μg/ml (1500 U/ml) with each growth factor. The effects of plasmin were determined at a typical final concentration of 0.1 mg/ml by incubation with the individual growth factors in assay buffer. MMP-3 and -13 were incubated at a typical final concentration of 10 nM with the growth factors in assay buffer. […] All incubations were performed in siliconised tubes (Sigma Aldrich, UK).
(§12) All assays were carried out at 37° C. and enzymes were pre-incubated for 15 minutes with or without inhibitor as appropriate, prior to addition of growth factors. After the addition of growth factor, the incubation mixtures were divided into aliquots in siliconised tubes for each time point used. Incubations were carried out over a time course typically of 24 hours, unless otherwise stated. […]

The target of data set [3] is T2, MMP-3 (Homo sapiens, UniProt P08254).
T2 construct: made in house
The data set can be described thus: Proteolytic digestion of growth factors by purified MMP-3. Format: biochemical. The arrangement: key: significant (represented as ‘+’); a score from significant (represented as ‘+’) to major (represented as ‘+++’); major (represented as ‘+++’); Reduction of parent growth factor not accompanied by the appearance of degradation products is represented by (+). Particulars: purified MMP-3, 37° C., Western blot.
Description: as §10, §11, §12

For data set [4], the target named is T3, MMP-13 (Homo sapiens, UniProt P45452).
T3 construct: made in house
The data set can be described thus: Proteolytic digestion of growth factors by purified MMP-13. Format: biochemical. The arrangement: key: significant (represented as ‘+’); a score from significant (represented as ‘+’) to major (represented as ‘+++’); major (represented as ‘+++’); Reduction of parent growth factor not accompanied by the appearance of degradation products is represented by (+). Particulars: purified MMP-13, 37° C., Western blot.
Description: as §10, §11, §12

Data set [5] concerns the target uPA (Homo sapiens, UniProt P00749). The data set can be described thus: Proteolytic digestion of growth factors by purified uPA. Particulars: 37° C., Western blot. The arrangement: High molecular weight human urokinase from urine, 3000 IU/vial (Calbiochem, 672081); purchased Calbiochem 672081; host or cells: human urine; key: significant (represented as ‘+’); a score from significant (represented as ‘+’) to major (represented as ‘+++’); major (represented as ‘+++’); Reduction of parent growth factor not accompanied by the appearance of degradation products is represented by (+). It counts as biochemical.
Description: as §10, §11, §12

Data set [6] addresses T2, MMP-3. The experiment in a line: Reduction of MMP-3-catalysed degradation of KGF-2. It counts as biochemical. Particulars: MMP-3 / KGF-2, read-out: Percentage inhibition of proteolysis.
Data set [7] deals with T4, catalytic domain of human MMP-9 (Homo sapiens, UniProt P14780).
T4 sequence (P14780 with tags, fused parts or gaps DEL216-390 limits assumed): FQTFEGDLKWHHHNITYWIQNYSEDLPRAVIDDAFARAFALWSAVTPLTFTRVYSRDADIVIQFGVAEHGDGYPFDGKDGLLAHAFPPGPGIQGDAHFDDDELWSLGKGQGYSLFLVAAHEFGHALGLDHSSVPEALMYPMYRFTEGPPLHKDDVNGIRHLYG
The experiment in a line: MMP-9 fluorogenic inhibition assay. The conditions noted are these: read-out: Calculated Ki(nM) MMP-9. It counts as biochemical. The protocol:
(§1) All enzymes were pre-activated at 37° C. with aminophenylmercuric acetate (APMA) or trypsin before being made up to the final concentrations used in the assay. MMP-1 (30 nM) was activated with 0.93 mM APMA for 20 minutes, MMP-2 (30 nM) was activated with 1.32 mM APMA for 1 hour, MMP-3 (1010 nM) was activated with 1.81 mM APMA for 3 hours or heat activated at 55° C. for three hours, MMP-9 (100 nM) was activated with 2 mM APMA for 2 hours, human MMP-13 (100 nM) was activated with 2 mM APMA for 2 hours, and MMP-14 (900 nM) was activated with 0.9 ng/ml trypsin for 25 minutes, followed by the addition of 4.5 ng/ml trypsin inhibitor.
(§2) For MMP-1, the assay buffer used was 50 mM Tris, 200 mM NaCl, 5 mM CaCl2, 20 μM ZnCl2, 0.05% (w/v) Brij 35, pH 7.5. […] For MMP-13, the assay buffer used was 50 mM Tris, pH 7.5, 200 mM NaCl, 5 mM CaCl2, […] and 0.02% (w/v) Brij 35. For MMP-14, the assay buffer used was 50 mM Tris, 100 mM NaCl, 10 mM CaCl2, 0.25% (w/v) Brij 35, pH 7.5.
(§3) MMP-2, MMP-3 and MMP-9 inhibition was assayed by incubating activated catalytic domain of human MMP-2, MMP-3 and MMP-9 at 1 nM in assay buffer with 5 μM substrate Mca-Arg-Pro-Lys-Pro-Tyr-Ala-Nva-Trp-Met-Lys(Dnp)-NH2, and six different concentrations of inhibitor. The incubation was performed at 37° C. for 60 minutes.
(§4) The final assay concentrations of inhibitors used in the MMP-1 assays to determine Ki were 50, 40, 30, 20, 10 and 5 μM. For MMP-2, the final assay concentrations of inhibitors used were 1000, 800, 600, 400, 200 and 100 nM. For MMP-3, the final assay concentrations of inhibitors used were 5, 4, 3, 2, 1 and 0.5 nM. For MMP-9 and MMP-14, the final assay concentrations of inhibitors used were 5, 4, 3, 2, 1 and 0.5 μM.
All assays were carried out in a black 96-well plate with a final volume of 100 μl in each well. […] For MMP-2, MMP-3, MMP-9 and MMP-14, fluorescence was read every 2 minutes at […] and 393 nm γem for 1 hour using a Fluorostar fluorimeter (BMG) with BIOLISE software. For MMP-1 assays, the filters used were 355 nm γex and 440 nm γem; fluorescence was read every 2 minutes for 1 hour. […]

Data set [8] concerns the target T3, MMP-13. The data set can be described thus: MMP-13 fluorogenic inhibition assay. It counts as biochemical. The conditions noted are these: estimated from IC50; read-out: Calculated Ki(nM) MMP-13. The protocol:
(§5) All enzymes were pre-activated at 37° C. with aminophenylmercuric acetate (APMA) or trypsin before being made up to the final concentrations used in the assay.
(§6) For MMP-1, the assay buffer used was 50 mM Tris, 200 mM NaCl, 5 mM CaCl2, 20 μM ZnCl2, 0.05% (w/v) Brij 35, pH 7.5. […] For MMP-13, the assay buffer used was 50 mM Tris, pH 7.5, 200 mM NaCl, 5 mM CaCl2, […] and 0.02% (w/v) Brij 35.
Assays were carried out in 96-well microfluor plates. All incubations were performed at 37° C. and fluorescence readings determined at 360 nm γex and 450 nm γem.
For the assay, the fluorescence values at time zero were subtracted from those determined at 15 or 20 minutes. The % response was then calculated by comparison to positive controls (enzyme, buffer and substrate in the absence of inhibitor). IC50 values were then determined using FitCurve (Excel Tessella Stats add-in).
(§7) These were estimated using the following equation: IC50=(Ki*[…], where S is the substrate concentration and Km the Michaelis-Menton coefficient. Serine Protease Assays

For data set [9], the target named is catalytic domain of human MMP-2 (Homo sapiens, UniProt P08253). The data set can be described thus: MMP-2 fluorogenic inhibition assay. Format: biochemical. Particulars: read-out: Calculated Ki(nM) MMP-2. As for the experimental part:
as §5, §6, §3
(§8) For MMP-2, the final assay concentrations of inhibitors used were 1000, 800, 600, 400, 200 and 100 nM. For MMP-3, the final assay concentrations of inhibitors used were 5, 4, 3, 2, 1 and 0.5 nM. For MMP-9 and MMP-14, the final assay concentrations of inhibitors used were 5, 4, 3, 2, 1 and 0.5 μM.
All assays were carried out in a black 96-well plate with a final volume of 100 μl in each well. Inhibitors were dissolved in dimethylsulphoxide (DMSO) to 1 mM. Solutions were then serially diluted in buffer to give the final concentrations shown. […]

Data set [10] addresses T5, catalytic domain human MMP-1 (Homo sapiens, UniProt P03956).
T5 construct: made in house
T5 sequence (P03956 100-269 limits assumed): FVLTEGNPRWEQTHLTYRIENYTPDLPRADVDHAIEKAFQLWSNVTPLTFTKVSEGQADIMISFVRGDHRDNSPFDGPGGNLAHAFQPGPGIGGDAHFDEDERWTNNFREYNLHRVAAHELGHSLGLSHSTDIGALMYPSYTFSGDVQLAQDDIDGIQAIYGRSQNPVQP
The data set can be described thus: MMP-1 fluorogenic inhibition assay. It counts as biochemical. The conditions noted are these: * limited by compound solubility; read-out: Calculated Ki(nM) MMP-1. As for the experimental part:
as §5, §6
The incubation was performed at 37° C. for 60 minutes.
as §8
(§9) All assays were carried out in a black 96-well plate with a final volume of 100 μl in each well. Inhibitors were dissolved in dimethylsulphoxide (DMSO) to 1 mM. Solutions were then serially diluted in buffer to give the final concentrations shown.
as §7

Data set [11] has as its target T6, catalytic domain human MMP-14 (Homo sapiens, UniProt P50281).
T6 construct: made in house
The experiment in a line: MMP-14 fluorogenic inhibition assay. It counts as biochemical. Particulars: read-out: Calculated Ki(nM) MMP-14. The protocol: as §1, §2
MMP-14 inhibition was assayed by incubating activated catalytic domain human MMP-14 at 1 nM in assay buffer with 10 μM Mca-Pro-Leu-Gly-Leu-Dpa-Ala-Arg-NH2 and six concentrations of inhibitor. The incubation was performed at 37° C. for 60 minutes.
as §4
All assays were carried out in a black 96-well plate with a final volume of 100 μl in each well. Inhibitors were dissolved in dimethylsulphoxide (DMSO) to 1 mM. […] For MMP-2, MMP-3, MMP-9 and MMP-14, fluorescence was read every 2 minutes at […] and 393 nm γem for 1 hour using a Fluorostar fluorimeter (BMG) with BIOLISE software. For MMP-1 assays, the filters used were 355 nm γex and 440 nm γem; fluorescence was read every 2 minutes for 1 hour. […]

Data set [12] concerns the target T7, catalytic domain of human MMP-3 (Homo sapiens, UniProt P08254).
T7 construct: made in house
The experiment in a line: MMP-3 fluorogenic inhibition assay. It counts as biochemical. The protocol: as §5, §6, §3, §8, §9, §7

T2 sequence (P08254 100-272 limits assumed): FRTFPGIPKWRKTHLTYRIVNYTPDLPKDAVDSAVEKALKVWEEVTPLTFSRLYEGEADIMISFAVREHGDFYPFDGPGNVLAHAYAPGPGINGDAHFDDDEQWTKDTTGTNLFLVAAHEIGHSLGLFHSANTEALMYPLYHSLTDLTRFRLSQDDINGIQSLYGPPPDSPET
T1 sequence (P00747 581-810 limits assumed): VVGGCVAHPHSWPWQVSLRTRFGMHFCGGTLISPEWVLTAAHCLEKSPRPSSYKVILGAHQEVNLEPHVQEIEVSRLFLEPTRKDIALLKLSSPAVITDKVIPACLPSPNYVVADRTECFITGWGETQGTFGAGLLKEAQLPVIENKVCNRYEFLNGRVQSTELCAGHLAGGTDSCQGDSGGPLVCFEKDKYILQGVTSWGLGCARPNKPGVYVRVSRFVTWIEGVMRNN
T1 sequence (P00747 97-580 partner limits assumed): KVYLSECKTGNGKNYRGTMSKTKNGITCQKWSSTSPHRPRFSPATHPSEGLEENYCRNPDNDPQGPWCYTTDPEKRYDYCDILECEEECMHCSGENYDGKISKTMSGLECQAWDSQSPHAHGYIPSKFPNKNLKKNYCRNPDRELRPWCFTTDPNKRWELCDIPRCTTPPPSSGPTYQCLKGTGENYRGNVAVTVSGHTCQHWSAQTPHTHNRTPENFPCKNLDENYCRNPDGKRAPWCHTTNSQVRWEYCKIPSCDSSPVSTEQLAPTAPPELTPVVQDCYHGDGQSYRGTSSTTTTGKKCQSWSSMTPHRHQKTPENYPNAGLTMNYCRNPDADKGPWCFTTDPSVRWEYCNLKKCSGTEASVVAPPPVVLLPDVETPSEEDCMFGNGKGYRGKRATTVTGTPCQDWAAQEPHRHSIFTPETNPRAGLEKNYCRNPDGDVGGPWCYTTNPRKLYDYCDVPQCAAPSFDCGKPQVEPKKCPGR
T7 sequence (P08254 100-272 limits assumed): as the sequence (P08254 100-272 limits assumed) above
catalytic domain of human MMP-2, sequence (P08253 with tags, fused parts or gaps DEL222-396 limits assumed): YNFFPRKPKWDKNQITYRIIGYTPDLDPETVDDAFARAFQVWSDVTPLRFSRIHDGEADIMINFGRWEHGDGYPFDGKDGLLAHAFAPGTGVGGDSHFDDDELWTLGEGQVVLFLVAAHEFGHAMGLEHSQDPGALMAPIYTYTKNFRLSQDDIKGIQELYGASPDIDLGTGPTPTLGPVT

Take transforming growth factor β3 [TGFβ3]: the “half life after injection into venous ulcers” value in [1] is on record as “approximately 30 minutes”.
As for “TGF-β2: "Human recombinant TGF-β2 and KGF-2 were obtained from R&D Systems"; growth factor”, in [2], the “Extent of hydrolysis of growth factor by Plasmin” value is on record as “++”. The “Extent of hydrolysis of growth factor by MMP-3” value in data set [3] is “(+)”. The “Extent of hydrolysis of growth factor by MMP-13” value in data set [4] is on record as “+”. Further, the “Extent of hydrolysis of growth factor by uPA” value in [5] is listed as “+”.
In the case of `Cc1cc(C2CCN(S(=O)(=O)C(C)(C)C(=O)NO)CC2)ccc1-c1cccc(OCCO)c1` [compound 9470], the inhibition at 0.01 µM in data set [6] (inhibitor 0.01 μM) was determined as 24.5%. In addition, the inhibition at 0.1 µM in data set [6] (inhibitor 0.1 μM) amounted to 64.5%. The inhibition at 1 µM in data set [6] (inhibitor 1 μM) worked out at 72.2%. Further, the inhibition at 10 µM in data set [6] (inhibitor 10 μM) is 91.1%. For the same compound, the inhibitory constant (Ki) is 406 nM in [7]; 0.95 nM in [8]; 269 nM in data set [9]; 1780 nM in data set [10]; 1710 nM in data set [11]; 1 nM in [12] (read-out: Calculated Ki(nM) MMP-3). Further, in [12] (from Ki values of Table 3 (MMP-1, -2, -3, -9, -13, -14)), the “Selectivity among MMPs (in words)” value was “selective dual inhibitor of MMP-3 and MMP-13”.
Consider “PDGF-BB: "human recombinant PDGF-BB" obtained from Sigma; growth factor”, for which, in data set [2], the “Extent of hydrolysis of growth factor by Plasmin” value was “+++”. The “Extent of hydrolysis of growth factor by MMP-3” value in [3] was “+”. Moreover, the “Extent of hydrolysis of growth factor by MMP-13” value in data set [4] is recorded as “(+)”. In addition, in data set [5], the “Extent of hydrolysis of growth factor by uPA” value is on record as “++”.

The term inhibition denotes the drop in the measured response relative to a control, in per cent. By Ki is commonly meant a dissociation constant, usually derived from enzyme kinetics or from competition with a known ligand.
